Assay results published in PMC9898036, “VIP152 is a selective CDK9 inhibitor with pre-clinical in vitro and in vivo efficacy in chronic lymphocytic leukemia” (Leukemia, 2022).
Like-named read-outs stand apart in the source and are kept apart here.

Tests used:
Assay in all cases: DiscoverX KINOMEscan kinase profiling (468 assays)
Assay type in all cases: binding
human kinome [1] = target: human kinome (Homo sapiens, UniProt Q14164); conditions: IKK-epsilon (Entrez IKBKE); 100 nM; read-out: Percent Control
In short: (§1)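 VIP152 was run in DMSO, alongside a DMSO control. Readout was qPCR of DNA-tagged kinase still bound to bead-immobilized biotinylated kinase ligands after compound competition.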

human kinome [2] = target: human kinome (Homo sapiens, UniProt P45985); conditions: MEK4 (Entrez MAP2K4); 100 nM; read-out: Percent Control
In short: as §1

human kinome [3] = target: human kinome (Homo sapiens, UniProt P14616); conditions: INSRR; 100 nM; read-out: Percent Control
In short: as §1

human kinome [4] = target: human kinome (Homo sapiens, UniProt O75676); conditions: compound concentration 1000 nM, read-out: Percent Control
In short: as §1

human kinome [5] = target: human kinome (Homo sapiens, UniProt O15111); conditions: IKK-alpha (Entrez CHUK); 100 nM; read-out: Percent Control
In short: as §1

human kinome [6] = target: human kinome (Homo sapiens, UniProt Q8N752); conditions: CSNK1A1L; 100 nM; read-out: Percent Control
In short: as §1

human kinome [7] = target: human kinome (Homo sapiens, UniProt Q16288); conditions: kinase TRKC (Entrez NTRK3); compound concentration 1000 nM; read-out: Percent Control
In short: as §1

human kinome [8] = target: human kinome (Homo sapiens, UniProt Q15139); conditions: read-out: Percent Control
In short: as §1

human kinome [9] = target: human kinome (Homo sapiens, UniProt P35590); conditions: kinase TIE1 (Entrez TIE1); compound concentration 1000 nM; read-out: Percent Control
In short: as §1

human kinome [10] = target: human kinome (Homo sapiens, UniProt Q9UQ88); conditions: CDC2L2; 100 nM; read-out: Percent Control
In short: as §1

human kinome [11] = target: human kinome (Homo sapiens, UniProt O95819); conditions: MAP4K4; 100 nM; read-out: Percent Control
In short: as §1

human kinome [12] = target: human kinome (Homo sapiens, UniProt Q12866); conditions: MERTK; 100 nM; read-out: Percent Control
In short: as §1

human kinome [13] = target: human kinome (Homo sapiens, UniProt O14936); conditions: CASK; 100 nM; read-out: Percent Control
In short: as §1

human kinome [14] = target: human kinome (Homo sapiens, UniProt Q02750); conditions: MEK1 (Entrez MAP2K1); 100 nM; read-out: Percent Control
In short: as §1

human kinome [15] = target: human kinome (Homo sapiens, UniProt P35968); conditions: kinase VEGFR2 (Entrez KDR); compound concentration 1000 nM; read-out: Percent Control
In short: as §1

human kinome [16] = target: human kinome (Homo sapiens, UniProt O43683); conditions: BUB1; 100 nM; read-out: Percent Control
In short: as §1

human kinome [17] = target: human kinome (Homo sapiens, UniProt P49841); conditions: GSK3B; 100 nM; read-out: Percent Control
In short: as §1

human kinome [18] = target: human kinome (Homo sapiens, UniProt P06239); conditions: LCK; 100 nM; read-out: Percent Control
In short: as §1

human kinome [19] = target: human kinome (Homo sapiens, UniProt Q07912); conditions: kinase TNK2 (Entrez TNK2); compound concentration 1000 nM; read-out: Percent Control
In short: as §1

human kinome [20] = target: human kinome (Homo sapiens, UniProt Q9Y2K2); conditions: read-out: Percent Control
In short: as §1

human kinome [21] = target: human kinome (Homo sapiens, UniProt P78356); conditions: read-out: Percent Control
In short: as §1

human kinome [22] = target: human kinome (Homo sapiens, UniProt Q9BRS2); conditions: kinase RIOK1 (Entrez RIOK1); compound concentration 1000 nM; read-out: Percent Control
In short: as §1

human kinome [23] = target: human kinome (Homo sapiens, UniProt Q13555); conditions: CAMK2G; 100 nM; read-out: Percent Control
In short: as §1

human kinome [24] = target: human kinome (Homo sapiens, UniProt P49761); conditions: CLK3; 100 nM; read-out: Percent Control
In short: as §1

human kinome [25] = target: human kinome (Homo sapiens, UniProt Q05655); conditions: read-out: Percent Control
In short: as §1

human kinome [26] = target: human kinome (Homo sapiens, UniProt P51956); conditions: read-out: Percent Control
In short: as §1

human kinome [27] = target: human kinome (Homo sapiens, UniProt Q00536); conditions: read-out: Percent Control
In short: as §1

human kinome [28] = target: human kinome (Homo sapiens, UniProt Q9P0L2); conditions: MARK1; 100 nM; read-out: Percent Control
In short: as §1

human kinome [29] = target: human kinome (Homo sapiens, UniProt Q13546); conditions: kinase RIPK1 (Entrez RIPK1); compound concentration 1000 nM; read-out: Percent Control
In short: as §1

human kinome [30] = target: human kinome (Homo sapiens, UniProt P00533); conditions: EGFR; 100 nM; read-out: Percent Control
In short: as §1

Sequence of human kinome (Homo sapiens, UniProt Q05655) (Q05655 whole entry): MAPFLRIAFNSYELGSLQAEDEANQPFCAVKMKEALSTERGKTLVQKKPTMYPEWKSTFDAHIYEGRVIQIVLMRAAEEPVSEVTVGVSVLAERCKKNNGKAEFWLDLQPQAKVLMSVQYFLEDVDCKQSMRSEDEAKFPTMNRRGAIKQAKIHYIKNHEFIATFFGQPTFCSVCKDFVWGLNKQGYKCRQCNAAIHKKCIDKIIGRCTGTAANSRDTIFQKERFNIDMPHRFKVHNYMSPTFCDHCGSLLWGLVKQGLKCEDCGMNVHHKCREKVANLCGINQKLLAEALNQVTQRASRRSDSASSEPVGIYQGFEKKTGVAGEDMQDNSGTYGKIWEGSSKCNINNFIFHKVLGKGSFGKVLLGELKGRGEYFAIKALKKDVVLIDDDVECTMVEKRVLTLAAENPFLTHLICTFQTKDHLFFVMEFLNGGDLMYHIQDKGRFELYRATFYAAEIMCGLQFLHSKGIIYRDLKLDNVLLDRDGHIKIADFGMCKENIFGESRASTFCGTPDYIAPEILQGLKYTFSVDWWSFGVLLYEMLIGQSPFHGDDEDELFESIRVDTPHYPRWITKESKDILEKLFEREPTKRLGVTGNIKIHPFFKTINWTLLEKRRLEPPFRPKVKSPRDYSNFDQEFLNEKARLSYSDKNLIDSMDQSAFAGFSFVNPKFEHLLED
Sequence of human kinome (Homo sapiens, UniProt P78356) (P78356 whole entry): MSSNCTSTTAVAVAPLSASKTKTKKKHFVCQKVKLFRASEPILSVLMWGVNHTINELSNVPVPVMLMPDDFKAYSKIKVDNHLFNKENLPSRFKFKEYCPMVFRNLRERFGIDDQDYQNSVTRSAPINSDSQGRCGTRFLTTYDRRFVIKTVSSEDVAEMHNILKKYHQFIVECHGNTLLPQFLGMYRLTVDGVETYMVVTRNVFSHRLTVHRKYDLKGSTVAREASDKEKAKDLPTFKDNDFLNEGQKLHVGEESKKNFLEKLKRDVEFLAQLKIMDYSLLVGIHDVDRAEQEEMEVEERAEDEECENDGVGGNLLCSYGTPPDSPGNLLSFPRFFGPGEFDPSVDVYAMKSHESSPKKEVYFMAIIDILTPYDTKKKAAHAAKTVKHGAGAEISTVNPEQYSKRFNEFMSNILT
Sequence of human kinome (Homo sapiens, UniProt O75676) (O75676 whole entry): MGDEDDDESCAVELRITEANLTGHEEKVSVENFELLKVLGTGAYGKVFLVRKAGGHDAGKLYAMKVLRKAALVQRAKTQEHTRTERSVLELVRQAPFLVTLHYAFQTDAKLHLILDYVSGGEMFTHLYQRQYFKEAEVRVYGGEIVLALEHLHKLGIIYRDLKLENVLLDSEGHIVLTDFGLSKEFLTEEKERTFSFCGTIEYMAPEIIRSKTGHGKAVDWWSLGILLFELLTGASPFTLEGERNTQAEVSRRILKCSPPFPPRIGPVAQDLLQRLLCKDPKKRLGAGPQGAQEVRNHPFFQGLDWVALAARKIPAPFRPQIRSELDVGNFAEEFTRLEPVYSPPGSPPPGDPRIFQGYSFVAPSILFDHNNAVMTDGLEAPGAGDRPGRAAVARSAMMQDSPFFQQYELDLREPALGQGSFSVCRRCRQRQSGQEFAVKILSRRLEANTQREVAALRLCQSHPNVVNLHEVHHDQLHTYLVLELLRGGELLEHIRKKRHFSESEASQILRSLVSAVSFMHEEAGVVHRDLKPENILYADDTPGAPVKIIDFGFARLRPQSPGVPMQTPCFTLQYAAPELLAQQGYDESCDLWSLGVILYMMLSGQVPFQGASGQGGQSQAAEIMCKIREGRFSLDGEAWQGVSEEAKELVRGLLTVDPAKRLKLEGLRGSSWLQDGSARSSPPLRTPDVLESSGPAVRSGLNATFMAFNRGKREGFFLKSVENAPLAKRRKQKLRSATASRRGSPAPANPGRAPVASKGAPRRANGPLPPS
Sequence of human kinome (Homo sapiens, UniProt Q00536) (Q00536 whole entry): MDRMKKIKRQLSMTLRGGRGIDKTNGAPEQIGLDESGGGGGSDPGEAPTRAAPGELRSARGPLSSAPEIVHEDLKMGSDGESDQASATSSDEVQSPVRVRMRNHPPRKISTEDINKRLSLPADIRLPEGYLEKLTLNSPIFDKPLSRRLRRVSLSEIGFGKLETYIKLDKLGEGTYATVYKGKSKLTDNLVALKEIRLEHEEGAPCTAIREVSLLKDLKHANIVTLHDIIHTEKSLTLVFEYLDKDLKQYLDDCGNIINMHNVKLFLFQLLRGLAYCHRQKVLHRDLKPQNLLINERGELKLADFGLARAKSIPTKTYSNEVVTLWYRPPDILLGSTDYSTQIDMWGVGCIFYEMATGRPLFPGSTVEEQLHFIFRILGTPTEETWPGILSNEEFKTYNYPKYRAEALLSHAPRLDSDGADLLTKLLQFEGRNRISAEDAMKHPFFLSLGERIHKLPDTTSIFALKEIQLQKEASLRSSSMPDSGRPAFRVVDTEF
Sequence of human kinome (Homo sapiens, UniProt Q15139) (Q15139 whole entry): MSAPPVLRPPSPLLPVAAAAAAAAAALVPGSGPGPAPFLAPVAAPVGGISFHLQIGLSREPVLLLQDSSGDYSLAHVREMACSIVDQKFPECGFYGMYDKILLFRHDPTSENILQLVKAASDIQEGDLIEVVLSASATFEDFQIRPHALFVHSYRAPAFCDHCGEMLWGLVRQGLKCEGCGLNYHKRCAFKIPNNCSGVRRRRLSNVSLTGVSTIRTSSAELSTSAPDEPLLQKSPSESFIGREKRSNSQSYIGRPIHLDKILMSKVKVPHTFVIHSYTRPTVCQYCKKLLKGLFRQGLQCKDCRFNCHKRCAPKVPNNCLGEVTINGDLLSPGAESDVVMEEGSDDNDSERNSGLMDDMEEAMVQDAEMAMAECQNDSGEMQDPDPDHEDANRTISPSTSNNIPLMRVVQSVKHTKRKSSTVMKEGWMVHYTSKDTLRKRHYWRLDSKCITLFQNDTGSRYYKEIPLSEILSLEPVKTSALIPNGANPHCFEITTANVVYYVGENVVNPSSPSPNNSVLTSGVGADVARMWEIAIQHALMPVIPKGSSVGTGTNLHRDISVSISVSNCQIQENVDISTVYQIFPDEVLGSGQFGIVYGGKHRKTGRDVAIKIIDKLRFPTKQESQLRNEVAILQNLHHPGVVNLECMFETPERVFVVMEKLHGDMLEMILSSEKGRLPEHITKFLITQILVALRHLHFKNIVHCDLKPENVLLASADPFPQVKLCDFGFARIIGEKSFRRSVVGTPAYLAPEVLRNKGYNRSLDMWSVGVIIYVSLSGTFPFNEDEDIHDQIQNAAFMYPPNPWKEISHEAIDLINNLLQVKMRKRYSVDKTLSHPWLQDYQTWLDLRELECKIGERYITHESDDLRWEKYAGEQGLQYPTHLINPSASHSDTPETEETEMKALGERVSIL
Sequence of human kinome (Homo sapiens, UniProt Q9Y2K2) (Q9Y2K2 whole entry): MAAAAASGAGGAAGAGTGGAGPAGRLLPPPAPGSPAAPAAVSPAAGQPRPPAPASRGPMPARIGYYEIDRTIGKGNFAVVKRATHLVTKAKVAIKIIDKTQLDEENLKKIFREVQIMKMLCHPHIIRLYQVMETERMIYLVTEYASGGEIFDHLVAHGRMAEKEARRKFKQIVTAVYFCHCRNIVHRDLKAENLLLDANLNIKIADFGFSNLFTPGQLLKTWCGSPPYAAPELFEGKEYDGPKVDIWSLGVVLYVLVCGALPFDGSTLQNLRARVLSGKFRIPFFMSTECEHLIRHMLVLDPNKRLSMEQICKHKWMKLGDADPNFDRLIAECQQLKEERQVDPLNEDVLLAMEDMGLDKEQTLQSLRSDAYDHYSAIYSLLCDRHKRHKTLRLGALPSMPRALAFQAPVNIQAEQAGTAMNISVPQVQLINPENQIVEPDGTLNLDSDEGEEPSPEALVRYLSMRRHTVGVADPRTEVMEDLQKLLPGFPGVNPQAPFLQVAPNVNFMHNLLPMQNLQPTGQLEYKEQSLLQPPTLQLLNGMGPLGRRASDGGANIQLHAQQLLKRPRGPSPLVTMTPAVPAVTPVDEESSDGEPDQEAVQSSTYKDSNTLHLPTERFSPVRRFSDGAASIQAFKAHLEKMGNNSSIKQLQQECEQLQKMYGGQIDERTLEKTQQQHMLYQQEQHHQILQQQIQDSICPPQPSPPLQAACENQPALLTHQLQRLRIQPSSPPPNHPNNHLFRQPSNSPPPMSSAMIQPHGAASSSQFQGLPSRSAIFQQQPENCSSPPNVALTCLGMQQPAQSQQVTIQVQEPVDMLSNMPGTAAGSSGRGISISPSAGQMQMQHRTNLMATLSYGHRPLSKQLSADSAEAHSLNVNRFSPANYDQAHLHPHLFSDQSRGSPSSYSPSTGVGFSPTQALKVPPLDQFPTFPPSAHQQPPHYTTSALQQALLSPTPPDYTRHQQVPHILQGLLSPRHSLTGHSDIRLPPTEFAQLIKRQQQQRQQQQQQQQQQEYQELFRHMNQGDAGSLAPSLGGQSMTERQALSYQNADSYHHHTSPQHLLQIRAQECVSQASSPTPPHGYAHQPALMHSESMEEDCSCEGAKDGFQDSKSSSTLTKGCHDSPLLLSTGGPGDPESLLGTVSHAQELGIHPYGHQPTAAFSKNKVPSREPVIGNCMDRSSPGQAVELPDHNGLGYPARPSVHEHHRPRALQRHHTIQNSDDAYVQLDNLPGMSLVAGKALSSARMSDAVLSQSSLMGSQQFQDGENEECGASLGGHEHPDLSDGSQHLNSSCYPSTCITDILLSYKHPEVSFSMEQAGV
Sequence of human kinome (Homo sapiens, UniProt Q02750) (Q02750 whole entry): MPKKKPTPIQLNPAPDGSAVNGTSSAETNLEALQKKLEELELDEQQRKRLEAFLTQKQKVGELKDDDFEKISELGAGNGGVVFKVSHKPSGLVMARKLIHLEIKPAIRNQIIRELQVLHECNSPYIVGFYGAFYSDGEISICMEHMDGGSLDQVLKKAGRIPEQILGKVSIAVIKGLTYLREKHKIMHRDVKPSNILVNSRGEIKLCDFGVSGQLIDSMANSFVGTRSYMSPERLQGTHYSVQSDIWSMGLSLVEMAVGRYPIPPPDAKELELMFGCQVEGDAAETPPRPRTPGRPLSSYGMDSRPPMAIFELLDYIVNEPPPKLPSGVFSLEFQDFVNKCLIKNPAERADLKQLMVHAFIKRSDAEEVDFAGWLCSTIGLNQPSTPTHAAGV

COc1cc(F)ccc1-c1cc(Nc2cc(CS(C)(=N)=O)ccn2)ncc1F (stereo not shown) [VIP152]
remaining binding at 0.1 µM (human kinome [1]): 100% | remaining binding at 0.1 µM (human kinome [2]): 100% | remaining binding at 0.1 µM (human kinome [3]): 100% | remaining binding at 1 µM (human kinome [4]; kinase RPS6KA4(Kin.Dom.1-N-terminal) (Entrez RPS6KA4)): 85% | remaining binding at 1 µM (human kinome [4]; kinase RPS6KA4(Kin.Dom.2-C-terminal) (Entrez RPS6KA4)): 71% | remaining binding at 0.1 µM (human kinome [5]): 100% | remaining binding at 0.1 µM (human kinome [6]): 100% | remaining binding at 1 µM (human kinome [7]): 26% | remaining binding at 0.1 µM (human kinome [8]; PRKD1, 100 nM): 71% | remaining binding at 1 µM (human kinome [8]; kinase PRKD1 (Entrez PRKD1), compound concentration 1000 nM): 100% | remaining binding at 1 µM (human kinome [9]): 76% | remaining binding at 0.1 µM (human kinome [10]): 100% | remaining binding at 0.1 µM (human kinome [11]): 73% | remaining binding at 0.1 µM (human kinome [12]): 100% | remaining binding at 0.1 µM (human kinome [13]): 78% | remaining binding at 0.1 µM (human kinome [14]): 100% | remaining binding at 1 µM (human kinome [15]): 55% | remaining binding at 0.1 µM (human kinome [16]): 100% | remaining binding at 0.1 µM (human kinome [17]): 72% | remaining binding at 0.1 µM (human kinome [18]): 100% | remaining binding at 1 µM (human kinome [19]): 92% | remaining binding at 0.1 µM (human kinome [20]; QSK (Entrez KIAA0999), 100 nM): 100% | remaining binding at 1 µM (human kinome [20]; kinase QSK (Entrez KIAA0999), compound concentration 1000 nM): 98% | remaining binding at 0.1 µM (human kinome [21]; PIP5K2B (Entrez PIP4K2B), 100 nM): 100% | remaining binding at 1 µM (human kinome [21]; kinase PIP5K2B (Entrez PIP4K2B), compound concentration 1000 nM): 100% | remaining binding at 1 µM (human kinome [22]): 79% | remaining binding at 0.1 µM (human kinome [23]): 100% | remaining binding at 0.1 µM (human kinome [24]): 93% | remaining binding at 0.1 µM (human kinome [25]; PRKCD, 100 nM): 100% | remaining binding at 1 µM (human kinome [25]; kinase PRKCD (Entrez PRKCD), compound concentration 1000 nM): 83% | remaining binding at 0.1 µM (human kinome [26]; NEK3, 100 nM): 98% | remaining binding at 1 µM (human kinome [26]; kinase NEK3 (Entrez NEK3), compound concentration 1000 nM): 62% | remaining binding at 0.1 µM (human kinome [27]; PCTK1 (Entrez CDK16), 100 nM): 83% | remaining binding at 1 µM (human kinome [27]; kinase PCTK1 (Entrez CDK16), compound concentration 1000 nM): 24% | remaining binding at 0.1 µM (human kinome [28]): 82% | remaining binding at 1 µM (human kinome [29]): 79% | remaining binding at 0.1 µM (human kinome [30]): 100%
